Test results published in PMC9954146, “Anti-Leukaemic Activity of Rilpivirine Is Mediated by Aurora A Kinase Inhibition” (Cancers, 2023).

Assays:
Assay in all cases: Kinase panel
Assay type in all cases: biochemical
Settings in all cases: read-out: % Residual Activity
ALK1(h) = biological target: T1, ALK1(h) (Homo sapiens, UniProt P37023)
T1 construct: purchased Eurofins (KinaseProfiler)
How it was run: (§1)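 Cheng–Prusoff conversion of IC50 to Ki; IC50s from radioisotope-based assays at Km(ATP). Kinome-wide rilpivirine profiling.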

ALK6(h) = biological target: T2, ALK6(h) (Homo sapiens, UniProt O00238)
T2 construct: purchased Eurofins (KinaseProfiler)
How it was run: as §1

ATR/ATRIP(h) = biological target: T3, ATR/ATRIP(h) (Homo sapiens, UniProt Q13535)
T3 construct: purchased Eurofins (KinaseProfiler)
How it was run: as §1

Abl (H396P) (h) = biological target: T4, Abl (H396P) (h) (Homo sapiens, UniProt P00519, H396P)
T4 construct: purchased Eurofins (KinaseProfiler)
How it was run: as §1

CDK1/cyclinB(h) = biological target: T5, CDK1/cyclinB(h) (Homo sapiens, UniProt P06493)
T5 construct: purchased Eurofins (KinaseProfiler)
How it was run: as §1

CDK13/cyclinK(h) = biological target: T6, CDK13/cyclinK(h) (Homo sapiens, UniProt Q14004)
T6 construct: purchased Eurofins (KinaseProfiler)
How it was run: as §1

CDKL1(h) = biological target: T7, CDKL1(h) (Homo sapiens, UniProt Q00532)
T7 construct: purchased Eurofins (KinaseProfiler)
How it was run: as §1

CK1α(h) = biological target: T8, CK1α(h) (Homo sapiens, UniProt P48729)
T8 construct: purchased Eurofins (KinaseProfiler)
How it was run: as §1

CLK3(h) = biological target: T9, CLK3(h) (Homo sapiens, UniProt P49761)
T9 construct: purchased Eurofins (KinaseProfiler)
How it was run: as §1

DDR1(h) = biological target: T10, DDR1(h) (Homo sapiens, UniProt Q08345)
T10 construct: purchased Eurofins (KinaseProfiler)
How it was run: as §1

DYRK1A(h) = biological target: T11, DYRK1A(h) (Homo sapiens, UniProt Q13627)
T11 construct: purchased Eurofins (KinaseProfiler)
How it was run: as §1

ErbB2(h) = biological target: T12, ErbB2(h) (Homo sapiens, UniProt P04626)
T12 construct: purchased Eurofins (KinaseProfiler)
How it was run: as §1

HRI(h) = biological target: T13, HRI(h) (Homo sapiens, UniProt Q9BQI3)
T13 construct: purchased Eurofins (KinaseProfiler)
How it was run: as §1

LKB1(h) = biological target: T14, LKB1(h) (Homo sapiens, UniProt Q15831)
T14 construct: purchased Eurofins (KinaseProfiler)
How it was run: as §1

MAPK1(h) = biological target: T15, MAPK1(h) (Homo sapiens, UniProt P27361)
T15 construct: purchased Eurofins (KinaseProfiler)
How it was run: as §1

MINK(h) = biological target: T16, MINK(h) (Homo sapiens, UniProt Q8N4C8)
T16 construct: purchased Eurofins (KinaseProfiler)
How it was run: as §1

Mer(h) = biological target: T17, Mer(h) (Homo sapiens, UniProt Q12866)
T17 construct: purchased Eurofins (KinaseProfiler)
How it was run: as §1

Met(Y1248C)(h) = biological target: T18, Met(Y1248C)(h) (Homo sapiens, UniProt P08581, Y1230C)
T18 construct: purchased Eurofins (KinaseProfiler)
How it was run: as §1

NDR1(h) = biological target: T19, NDR1(h) (Homo sapiens, UniProt Q15208)
T19 construct: purchased Eurofins (KinaseProfiler)
How it was run: as §1

NEK7(h) = biological target: T20, NEK7(h) (Homo sapiens, UniProt Q8TDX7)
T20 construct: purchased Eurofins (KinaseProfiler)
How it was run: as §1

PAK1(h) = biological target: T21, PAK1(h) (Homo sapiens, UniProt Q13153)
T21 construct: purchased Eurofins (KinaseProfiler)
How it was run: as §1

PAK3(h) = biological target: T22, PAK3(h) (Homo sapiens, UniProt O75914)
T22 construct: purchased Eurofins (KinaseProfiler)
How it was run: as §1

PDHK4(h) = biological target: T23, PDHK4(h) (Homo sapiens, UniProt Q16654)
T23 construct: purchased Eurofins (KinaseProfiler)
How it was run: as §1

PDK1(h) = biological target: T24, PDK1(h) (Homo sapiens, UniProt O15530)
T24 construct: purchased Eurofins (KinaseProfiler)
How it was run: as §1

PKA(h) = biological target: T25, PKA(h) (Homo sapiens, UniProt P17612)
T25 construct: purchased Eurofins (KinaseProfiler)
How it was run: as §1

PKG1β(h) = biological target: T26, PKG1β(h) (Homo sapiens, UniProt Q13976)
T26 construct: purchased Eurofins (KinaseProfiler)
How it was run: as §1

PhKγ1(h) = biological target: T27, PhKγ1(h) (Homo sapiens, UniProt Q16816)
T27 construct: purchased Eurofins (KinaseProfiler)
How it was run: as §1

Pim-2(h) = biological target: T28, Pim-2(h) (Homo sapiens, UniProt Q9P1W9)
T28 construct: purchased Eurofins (KinaseProfiler)
How it was run: as §1

Pyk2(h) = biological target: T29, Pyk2(h) (Homo sapiens, UniProt Q14289)
T29 construct: purchased Eurofins (KinaseProfiler)
How it was run: as §1

ROCK-II(h) = biological target: T30, ROCK-II(h) (Homo sapiens, UniProt O75116)
T30 construct: purchased Eurofins (KinaseProfiler)
How it was run: as §1

Ret (V804L)(h) = biological target: T31, Ret (V804L)(h) (Homo sapiens, UniProt P07949, V804L)
T31 construct: purchased Eurofins (KinaseProfiler)
How it was run: as §1

Rsk1(h) = biological target: T32, Rsk1(h) (Homo sapiens, UniProt Q15418)
T32 construct: purchased Eurofins (KinaseProfiler)
How it was run: as §1

SAPK3(h) = biological target: T33, SAPK3(h) (Homo sapiens, UniProt P53778)
T33 construct: purchased Eurofins (KinaseProfiler)
How it was run: as §1

SNRK(h) = biological target: T34, SNRK(h) (Homo sapiens, UniProt Q9NRH2)
T34 construct: purchased Eurofins (KinaseProfiler)
How it was run: as §1

STK16(h) = biological target: T35, STK16(h) (Homo sapiens, UniProt O75716)
T35 construct: purchased Eurofins (KinaseProfiler)
How it was run: as §1

TAF1L(h) = biological target: T36, TAF1L(h) (Homo sapiens, UniProt Q8IZX4)
T36 construct: purchased Eurofins (KinaseProfiler)
How it was run: as §1

TBK1(h) = biological target: T37, TBK1(h) (Homo sapiens, UniProt Q9UHD2)
T37 construct: purchased Eurofins (KinaseProfiler)
How it was run: as §1

VRK2(h) = biological target: T38, VRK2(h) (Homo sapiens, UniProt Q86Y07)
T38 construct: purchased Eurofins (KinaseProfiler)
How it was run: as §1

WNK1(h) = biological target: T39, WNK1(h) (Homo sapiens, UniProt Q9H4A3)
T39 construct: purchased Eurofins (KinaseProfiler)
How it was run: as §1

T15 sequence (P27361 whole entry): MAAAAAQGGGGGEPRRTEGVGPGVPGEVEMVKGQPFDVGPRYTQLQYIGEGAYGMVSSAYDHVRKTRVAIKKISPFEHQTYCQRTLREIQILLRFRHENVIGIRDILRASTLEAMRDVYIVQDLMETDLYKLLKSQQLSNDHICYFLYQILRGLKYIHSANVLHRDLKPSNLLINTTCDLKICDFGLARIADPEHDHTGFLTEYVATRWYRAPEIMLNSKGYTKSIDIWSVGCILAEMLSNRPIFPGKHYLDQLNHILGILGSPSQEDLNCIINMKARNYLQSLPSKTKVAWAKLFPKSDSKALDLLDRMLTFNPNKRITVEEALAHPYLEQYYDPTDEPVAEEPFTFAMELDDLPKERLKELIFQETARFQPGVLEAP
T6 sequence (Q14004 whole entry): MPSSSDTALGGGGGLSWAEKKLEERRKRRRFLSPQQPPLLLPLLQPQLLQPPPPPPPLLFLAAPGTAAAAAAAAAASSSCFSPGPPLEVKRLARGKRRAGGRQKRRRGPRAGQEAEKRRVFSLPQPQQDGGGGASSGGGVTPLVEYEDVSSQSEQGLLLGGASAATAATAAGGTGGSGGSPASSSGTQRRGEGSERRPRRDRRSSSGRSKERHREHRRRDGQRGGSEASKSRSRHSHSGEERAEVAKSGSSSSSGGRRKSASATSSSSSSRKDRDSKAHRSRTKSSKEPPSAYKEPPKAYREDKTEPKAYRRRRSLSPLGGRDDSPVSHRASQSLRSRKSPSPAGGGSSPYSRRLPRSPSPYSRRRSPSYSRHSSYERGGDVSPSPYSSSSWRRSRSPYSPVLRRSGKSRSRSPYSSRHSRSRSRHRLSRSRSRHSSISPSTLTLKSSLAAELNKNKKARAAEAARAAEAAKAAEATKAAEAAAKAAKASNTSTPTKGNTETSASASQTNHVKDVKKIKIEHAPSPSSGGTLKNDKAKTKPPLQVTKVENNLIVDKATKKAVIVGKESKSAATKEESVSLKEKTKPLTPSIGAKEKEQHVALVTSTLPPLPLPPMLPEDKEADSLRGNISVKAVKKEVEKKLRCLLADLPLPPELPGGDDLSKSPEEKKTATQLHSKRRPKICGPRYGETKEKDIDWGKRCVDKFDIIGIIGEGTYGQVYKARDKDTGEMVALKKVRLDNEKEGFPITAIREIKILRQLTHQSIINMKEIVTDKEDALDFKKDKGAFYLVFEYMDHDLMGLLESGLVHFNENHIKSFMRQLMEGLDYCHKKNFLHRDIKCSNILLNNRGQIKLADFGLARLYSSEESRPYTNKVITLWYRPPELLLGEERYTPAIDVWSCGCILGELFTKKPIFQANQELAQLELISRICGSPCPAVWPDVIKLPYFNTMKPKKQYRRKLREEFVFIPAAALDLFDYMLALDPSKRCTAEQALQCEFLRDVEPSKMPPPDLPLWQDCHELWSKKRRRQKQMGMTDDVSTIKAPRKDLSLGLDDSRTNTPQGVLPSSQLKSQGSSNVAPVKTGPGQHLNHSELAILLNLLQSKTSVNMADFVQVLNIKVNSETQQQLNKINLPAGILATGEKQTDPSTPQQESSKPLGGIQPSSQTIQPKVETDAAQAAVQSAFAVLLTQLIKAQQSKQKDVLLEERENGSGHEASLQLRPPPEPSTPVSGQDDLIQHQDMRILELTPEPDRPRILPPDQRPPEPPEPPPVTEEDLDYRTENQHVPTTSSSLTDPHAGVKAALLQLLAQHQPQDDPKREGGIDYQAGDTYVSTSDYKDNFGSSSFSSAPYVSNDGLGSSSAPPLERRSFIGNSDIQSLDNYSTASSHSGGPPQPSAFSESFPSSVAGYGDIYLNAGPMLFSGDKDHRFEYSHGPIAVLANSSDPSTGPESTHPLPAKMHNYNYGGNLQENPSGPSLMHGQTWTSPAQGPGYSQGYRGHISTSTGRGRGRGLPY
T6 sequence (O75909 whole entry partner): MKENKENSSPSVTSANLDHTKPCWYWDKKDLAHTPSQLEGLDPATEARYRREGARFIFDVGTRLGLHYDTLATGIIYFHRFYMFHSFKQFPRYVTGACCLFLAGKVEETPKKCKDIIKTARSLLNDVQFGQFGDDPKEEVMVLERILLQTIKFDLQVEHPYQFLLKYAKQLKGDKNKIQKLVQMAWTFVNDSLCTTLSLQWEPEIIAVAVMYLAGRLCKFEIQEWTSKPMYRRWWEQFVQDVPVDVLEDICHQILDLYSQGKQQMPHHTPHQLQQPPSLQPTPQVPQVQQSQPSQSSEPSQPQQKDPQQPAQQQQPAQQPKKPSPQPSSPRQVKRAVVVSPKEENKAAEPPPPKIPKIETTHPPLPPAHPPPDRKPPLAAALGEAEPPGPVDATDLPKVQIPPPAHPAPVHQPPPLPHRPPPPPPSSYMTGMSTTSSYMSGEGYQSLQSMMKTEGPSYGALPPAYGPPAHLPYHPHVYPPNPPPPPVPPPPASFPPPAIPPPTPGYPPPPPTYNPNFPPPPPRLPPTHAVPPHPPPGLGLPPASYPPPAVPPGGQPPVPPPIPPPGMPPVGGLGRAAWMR
T12 sequence (P04626 23-1255): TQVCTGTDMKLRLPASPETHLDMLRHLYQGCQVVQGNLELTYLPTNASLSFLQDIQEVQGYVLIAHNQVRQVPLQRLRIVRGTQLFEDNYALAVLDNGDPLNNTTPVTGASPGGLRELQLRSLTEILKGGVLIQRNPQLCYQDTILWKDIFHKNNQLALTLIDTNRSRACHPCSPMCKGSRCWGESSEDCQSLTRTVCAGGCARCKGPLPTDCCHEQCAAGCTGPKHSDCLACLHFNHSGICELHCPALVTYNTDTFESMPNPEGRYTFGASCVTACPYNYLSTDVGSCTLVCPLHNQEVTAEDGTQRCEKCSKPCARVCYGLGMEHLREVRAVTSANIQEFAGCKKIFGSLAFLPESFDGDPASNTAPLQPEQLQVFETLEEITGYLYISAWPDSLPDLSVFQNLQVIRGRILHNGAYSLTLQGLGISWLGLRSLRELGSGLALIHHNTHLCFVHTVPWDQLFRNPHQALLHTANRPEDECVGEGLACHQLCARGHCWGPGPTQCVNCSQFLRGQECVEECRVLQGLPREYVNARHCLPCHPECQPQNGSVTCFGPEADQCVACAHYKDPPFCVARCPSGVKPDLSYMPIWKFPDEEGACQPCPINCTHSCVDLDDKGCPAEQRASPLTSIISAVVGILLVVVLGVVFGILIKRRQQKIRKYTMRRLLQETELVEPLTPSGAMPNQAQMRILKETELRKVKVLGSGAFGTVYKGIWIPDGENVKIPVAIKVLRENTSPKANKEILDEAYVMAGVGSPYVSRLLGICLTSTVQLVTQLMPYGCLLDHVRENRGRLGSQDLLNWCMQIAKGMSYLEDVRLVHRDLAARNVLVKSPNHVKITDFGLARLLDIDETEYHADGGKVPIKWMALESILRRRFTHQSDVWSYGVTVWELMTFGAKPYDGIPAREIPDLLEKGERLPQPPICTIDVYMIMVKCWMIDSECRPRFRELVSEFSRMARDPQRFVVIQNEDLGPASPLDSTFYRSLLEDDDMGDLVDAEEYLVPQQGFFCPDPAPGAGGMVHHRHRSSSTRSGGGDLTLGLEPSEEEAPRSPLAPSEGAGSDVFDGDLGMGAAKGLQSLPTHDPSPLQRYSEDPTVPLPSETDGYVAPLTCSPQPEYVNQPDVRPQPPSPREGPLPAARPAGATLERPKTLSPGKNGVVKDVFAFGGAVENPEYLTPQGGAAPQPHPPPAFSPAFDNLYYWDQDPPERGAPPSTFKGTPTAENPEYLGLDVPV
T31 sequence (P07949 29-1114 V804L): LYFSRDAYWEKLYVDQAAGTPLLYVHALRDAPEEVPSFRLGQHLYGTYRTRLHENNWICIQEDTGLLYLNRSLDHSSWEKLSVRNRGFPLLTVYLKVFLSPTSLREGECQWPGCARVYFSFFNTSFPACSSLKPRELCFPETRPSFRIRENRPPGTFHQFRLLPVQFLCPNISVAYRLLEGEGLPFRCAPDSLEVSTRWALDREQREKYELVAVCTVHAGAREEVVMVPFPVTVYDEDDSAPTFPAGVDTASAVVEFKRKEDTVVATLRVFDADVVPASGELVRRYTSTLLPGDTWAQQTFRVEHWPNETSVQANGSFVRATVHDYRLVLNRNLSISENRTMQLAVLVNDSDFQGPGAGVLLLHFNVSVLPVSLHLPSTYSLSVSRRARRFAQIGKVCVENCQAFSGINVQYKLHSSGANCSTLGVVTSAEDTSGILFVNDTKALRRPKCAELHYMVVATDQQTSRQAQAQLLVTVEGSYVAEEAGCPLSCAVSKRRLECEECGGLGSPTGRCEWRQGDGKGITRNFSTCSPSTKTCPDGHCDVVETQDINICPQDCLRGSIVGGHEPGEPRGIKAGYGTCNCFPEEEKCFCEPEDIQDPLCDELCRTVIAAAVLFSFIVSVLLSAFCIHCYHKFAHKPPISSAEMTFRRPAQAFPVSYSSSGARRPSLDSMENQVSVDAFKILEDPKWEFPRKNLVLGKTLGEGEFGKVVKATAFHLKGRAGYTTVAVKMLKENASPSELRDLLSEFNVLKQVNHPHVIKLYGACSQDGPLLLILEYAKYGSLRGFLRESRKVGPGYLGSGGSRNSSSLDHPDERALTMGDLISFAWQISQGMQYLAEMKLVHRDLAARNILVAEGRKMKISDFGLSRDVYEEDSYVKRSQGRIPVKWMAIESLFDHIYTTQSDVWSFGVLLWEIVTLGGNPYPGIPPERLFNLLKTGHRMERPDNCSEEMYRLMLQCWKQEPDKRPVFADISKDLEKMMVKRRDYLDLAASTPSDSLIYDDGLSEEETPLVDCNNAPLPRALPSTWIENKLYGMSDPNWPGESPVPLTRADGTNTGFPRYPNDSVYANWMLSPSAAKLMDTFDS
T35 sequence (O75716 whole entry): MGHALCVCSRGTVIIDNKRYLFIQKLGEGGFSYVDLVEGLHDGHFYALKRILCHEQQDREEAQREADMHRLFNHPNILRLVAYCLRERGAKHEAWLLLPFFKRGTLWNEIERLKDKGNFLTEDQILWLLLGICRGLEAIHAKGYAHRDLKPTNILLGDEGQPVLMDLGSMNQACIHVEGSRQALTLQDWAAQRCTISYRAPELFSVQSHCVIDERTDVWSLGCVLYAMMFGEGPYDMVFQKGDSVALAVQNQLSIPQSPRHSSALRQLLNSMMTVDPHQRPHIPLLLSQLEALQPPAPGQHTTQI

Cc1cc(/C=C/C#N)cc(C)c1Nc1ccnc(Nc2ccc(C#N)cc2)n1 [rilpivirine, (E)-4-((4-((4-(2-cyanoethenyl)-2,6-dimethylphenyl)amino)pyrimidin-2-yl)amino)benzonitrile]
remaining activity at 1 µM (ALK1(h)): 84%
remaining activity at 1 µM (ALK6(h)): 83%
remaining activity at 1 µM (ATR/ATRIP(h)): 117%
remaining activity at 1 µM (Abl (H396P) (h)): 71%
remaining activity at 1 µM (CDK1/cyclinB(h)): 105%
remaining activity at 1 µM (CDK13/cyclinK(h)): 82%
remaining activity at 1 µM (CDKL1(h)): 75%
remaining activity at 1 µM (CK1α(h)): 103%
remaining activity at 1 µM (CLK3(h)): 93%
remaining activity at 1 µM (DDR1(h)): 46%
remaining activity at 1 µM (DYRK1A(h)): 56%
remaining activity at 1 µM (ErbB2(h)): 116%
remaining activity at 1 µM (HRI(h)): 91%
remaining activity at 1 µM (LKB1(h)): 87%
remaining activity at 1 µM (MAPK1(h)): 90%
remaining activity at 1 µM (MINK(h)): 80%
remaining activity at 1 µM (Mer(h)): 74%
remaining activity at 1 µM (Met(Y1248C)(h)): 100%
remaining activity at 1 µM (NDR1(h)): 89%
remaining activity at 1 µM (NEK7(h)): 110%
remaining activity at 1 µM (PAK1(h)): 92%
remaining activity at 1 µM (PAK3(h)): 86%
remaining activity at 1 µM (PDHK4(h)): 94%
remaining activity at 1 µM (PDK1(h)): 85%
remaining activity at 1 µM (PKA(h)): 93%
remaining activity at 1 µM (PKG1β(h)): 79%
remaining activity at 1 µM (PhKγ1(h)): 80%
remaining activity at 1 µM (Pim-2(h)): 56%
remaining activity at 1 µM (Pyk2(h)): 81%
remaining activity at 1 µM (ROCK-II(h)): 98%
remaining activity at 1 µM (Ret (V804L)(h)): 91%
remaining activity at 1 µM (Rsk1(h)): 91%
remaining activity at 1 µM (SAPK3(h)): 106%
remaining activity at 1 µM (SNRK(h)): 104%
remaining activity at 1 µM (STK16(h)): 58%
remaining activity at 1 µM (TAF1L(h)): 55%
remaining activity at 1 µM (TBK1(h)): 72%
remaining activity at 1 µM (VRK2(h)): 88%
remaining activity at 1 µM (WNK1(h)): 95%
